In the experiment the target is T1, KIT (Homo sapiens, UniProt P10721).
T1 construct: recombinant cytoplasmic portion of KIT, wild type (ProQinase #0997-0000-1)
Kind of experiment: MicroScale Thermophoresis (MST). The class given is binding. On the technique in general: MST reads how a fluorescent partner responds to local heating, with and without ligand.

Each structure is given as a SMILES string.

T1 sequence (P10721 544-976 limits assumed): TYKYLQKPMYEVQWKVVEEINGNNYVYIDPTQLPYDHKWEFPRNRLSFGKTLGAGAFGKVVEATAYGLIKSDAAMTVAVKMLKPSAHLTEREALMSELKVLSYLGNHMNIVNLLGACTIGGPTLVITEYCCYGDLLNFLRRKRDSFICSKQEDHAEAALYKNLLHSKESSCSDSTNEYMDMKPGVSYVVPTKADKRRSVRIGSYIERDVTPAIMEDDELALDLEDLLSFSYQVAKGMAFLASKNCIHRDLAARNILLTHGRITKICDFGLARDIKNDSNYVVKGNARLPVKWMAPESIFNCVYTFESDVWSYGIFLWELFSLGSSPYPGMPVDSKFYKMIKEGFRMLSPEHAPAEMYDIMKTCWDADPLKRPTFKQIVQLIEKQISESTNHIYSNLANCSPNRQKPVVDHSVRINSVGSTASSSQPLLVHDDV

Turning to `Cn1cc(-c2ccc3c(c2)CCN3C(=O)Cc2cccc(C(F)(F)F)c2)c2c(N)ncnc21` [GSK414, 7-methyl-5-(1-{[3-(trifluoromethyl)phenyl]acetyl}-2,3-dihydro-1H-indol-5-yl)-7H-p yrrolo[2,3-d]pyrimidin-4-amine], the Kd was 0.664 ± 0.294 µM.
`CC(C)(C)c1nc(-c2ccc(NC(=O)Nc3cccc(C(F)(F)F)c3)c3ccccc23)c2c(N)nccn12` [KIRA6] gave a Kd of 10.8 ± 2.9 µM.

Broadly, the Kd is the concentration at which binding is half-saturated. Lower therefore signals tighter binding.

(Values after publication PMC6443726, “The unfolded protein response modulators GSK2606414 and KIRA6 are potent KIT inhibitors” (Cell Death & Disease, 2019).)
